From patent publication US11780934B2, “Use of inhibitors of ADAM12 as adjuvants in tumor therapies” (INSTITUT PASTEUR, priority 2016, dated 2023)
“Also recorded” adds a separate entry of the source.

System: ADAM12+ CAFs
Test: Depletion of ADAM12+ CAFs by diphtheria toxin in M12-DTR mice bearing murine melanoma (MO5)
Type: in vivo, mouse
[1] = M12-DTR+DT vs tumors with normal stroma, melanoma

Substance: diphtheria toxin [DT]
- depletion of ADAM12+ CAFs (M12-DTR mice, DT ip starting at day 9 or 10 after melanoma cell inoculation): specifically depleted
- density of CD31+ vessels inside the tumors (M12-DTR+DT vs control (DTR negative) mice, melanoma, immunofluorescence, two or three weeks after inoculation): higher density
- tumor perfusion (positive area of Hoechst 33342 staining) (M12-DTR+DT vs control mice, melanoma, Hoechst 33342 iv): increased perfusion
- activation of CD31+ vessels (ICAM1+) (M12-DTR+DT vs control mice, melanoma, immunofluorescence): activated ICAM1+ phenotype
- tumor growth (M12-DTR+DT vs mice with normal tumor stroma, murine melanoma model): significantly delayed; also recorded: decrease in tumor growth
- frequency of CD3+ T cells in tumor [1]: significantly higher frequency; also recorded: higher T cells (CD3+) infiltration
- percentage of myeloid-derived suppressor cells (MDSC) and T-regulator cells (Tregs) [1]: remained unchanged
- ratio of M1/M2 macrophages [1]: increased ratio
- location of CD3+ T cells in tumor (M12-DTR+DT vs tumors with normal stroma, melanoma, histology): recruited to the core of the tumor
